Results reported in patent US20060229354A1, “Use of Isatin in stimulating red blood cell production and treatment of anemia” (priority 2005, published 2006).

How the values were obtained:
[1] = system: UT7/EPO cells; assay: Viable cell counts (trypan blue staining), EPO-deprived UT7/EPO cells; format: cell-based; settings: Isatin treatment
[2] = system: RPM18226 cells; assay: Melphalan-induced apoptosis in RPM18226 cells; format: cell-based; settings: data not shown
[3] = system: MO7E cells; assay: Apoptosis Assay (AA), GM-CSF-deprived MO7E cells; format: cell-based; settings: FIG. 4
[4] = system: JAK2-associated EPOR; assay: Immunoprecipitate study of phosphorylation of JAK2-associated EPOR in UT7/EPO cells; format: cell-based
Procedure: Referring to FIG. 5B, the Isatin-induced EPO-R phosphorylation occurs 5 minutes after the treatment and sustains beyond 1 hour afterwards.

[5] = system: UT7/EPO cells; assay: Calcein-AM release assay, EPO-deprived UT7/EPO cells; format: cell-based; settings: Isatin treatment
Procedure: Calcein-AM was purchased from Molecular Probes (Eugene) as a 1 mg/ml solution in dry dimethyl sulfoxide. UT7/EPO cells were resuspended in complete medium at a final concentration of 10^6/ml and incubated with 15 uM calcein-AM for 30 mininutes at 37° C. with occasional shaking. After two washes in the same way as the ^51Cr assay in V bottom 96-well microtiter plates, with E:T ratios ranging from 50:1 to 0.5:1, in triplicate, and with at least six replicate wells for spontaneous and maximum release. Various numbers of UT7/EPO cells treated with Isatin or EPO or with untreated cells were seeded as follows. After incubation 37° C. in 5% CO2 for 4 hours, 75 ul of each supernatant was harvested and transferred into new plates. The samples were measured using a Sepctramax Gemini dual-scanning microplate spectrofluoimeter. Data were expressed as arbitrary fluorescent unites (AFU). Percent lysis was calculated with the same formula used for the ^51Cr for the ^51CR assay.

[6] = system: STAT5; assay: Immunoprecipitate analysis of STAT5 phosphorylation in UT7/EPO cells; format: cell-based; settings: FIG. 6
Excerpt: FIG. 6 illustrates the results of Immunoprecipiate analysis of the effects of EPO and Isatin on STAT5 phosphorylation in UT7/EPO Cells.
Activation of EPO-R by EPO is predominately mediated by JAK signaling pathway, and STAT5 protein is the major component involving in this signal transduction. We studied the activity of STAT5 in response to Isatin treatment.

[7] = system: UT7/EPO cells; assay: MTT assay, EPO-deprived UT7/EPO cells; format: cell-based; settings: Isatin treatment
Procedure: UT7/EPO cells were cultured for 4 hours and then placed in triplicate in 96 well microtiter plates. The cell was treated with Isatin or EPO or PBS and cultured in 100 ul of DMEM, 10% FCS, overnight. The next day, media was removed and replace MTT assay solution. The plates were incubated for and addition 48 hours. And then cell viability was determined using a MTT assay, as described by manufacture (Sigma).

[8] = system: freshly isolated peripheral blood mononuclear cells; assay: Melphalan-induced apoptosis in peripheral blood mononuclear cells; format: cell-based; settings: data not shown
[9] = system: UT7/EPO cells; assay: Apoptosis Assay (AA), EPO-deprived UT7/EPO cells; format: cell-based
Procedure: UT7/EPO cells treated by Isatin or EPO or PBS was plated in triplicate in 96-well microtiter plates in 50 μl of culture medium and incubated for different time course. The cell apoptosis products were determined by Florence-probe. The cell apoptosis rate was calculated by positive apoptosis fragments.
We used several assays as mentioned in Materials and Methods section to evaluate the pharmacological activity of Isatin compound by examining the growth or the apoptosis of UT7/EPO cells. The cells used in AA assay are UT7/EPO. UT7/EPO cells were deprived from UT7 by elegant genetic engineering. As a result, the survival and growth of UT7/EPO cells rely on the stimulation of EPO-R by the exogenous EPO treatment. On the other hand, without the support of the exogenous EPO, the UT7/EPO cells will die. […] We used different assays to measure the level of apoptosis in UT7/EPO cells. If the tested compounds have erythropoietic agonist effect, the level of apoptosis in UT7/EPO cells should decrease in response to the treatment. […] Compared to EPO, higher dose of Isatin was required to generate the same extent of inhibition.

[10] = system: UT7/EPO cells; assay: DNA Ladder Detection Assay, EPO-deprived UT7/EPO cells; format: cell-based; settings: Isatin treatment
Procedure: 10^6 UT7/EPO cells, after treated with either Isatin or EPO or PBS, was lysed with 150 ul hypotonic lysis buffer (10 mM EDTA, 0.5% Triton X-100 in […] Tris-HCl, pH 7.4) for 15 minutes on ice and were precipitated with 2.5% polyethylene glycerol and 1 M NaCl for 15 minutes at 4 C. After centrifugation at 16,000 rpm for 10 minutes at room temperature, the supernatant was incubated in the presence of proteinase K (0.3 g/L) at 37° C. for one hour and precipitated with isopropanol at −20° C. After centrifugation, each cell pellet was dissolved in 10 ul of Tris-EDTA (pH 7.6) and electrophoresed on a 1.5% agarose gell containing ethidium bromide. Ladder formation of oligonucleosomal DNA was detected under ultraviolet.

[11] = refrigerator between 2° C. and 8° C.; cited from earlier work
[12] = initial phase of therapy; cited from earlier work

Row | Compound | Viable Cell Counts (trypan blue staining) [1] | inhibition of Melphalan-induced apoptosis in RPM18226 cells [2] | inhibition of GM-CSF withdrawal-induced apoptosis in MO7E cells [3] | duration of EPO-R phosphorylation after treatment ([4]; FIG. 5B) [h] | time of onset of EPO-R phosphorylation after treatment ([4]; FIG. 5B) [min] | phosphorylation of EPO-R through JAK2 mediated signaling pathway ([4]; FIGS. 5A and 5B) | phosphorylation of EPO-R, Isatin used together with EPO ([4]; Isatin together with EPO) | Calcein (cell viability) [5] | STAT5 activity (phosphorylation) during treatment [6] | MTT (cell viability) [7] | inhibition of Melphalan-induced apoptosis in freshly isolated peripheral blood mononuclear cells [8] | IC50 ([9]; Homo sapiens, UT-7/Epo, read-out: IC50 for inhibiting apoptosis in UT7/EPO cells) [µM] | effect of Isatin used together with EPO on apoptosis inhibition / EPO-R activity ([9]; Isatin together with EPO, UT7/EPO cells, FIG. 3) | AA (apoptosis) ([9]; Isatin treatment, EPO-deprived UT7/EPO cells) | erythropoietic stimulation effect compared with EPO ([9]; UT7/EPO cells, comparison with EPO) | apoptosis inhibition on UT7/EPO cells, concentration dependence ([9]; increasing Isatin concentration, FIGS. 2A and 2B) | DNA Ladder Assay [10] | shelf life of multi-dose vials in refrigerator after the initial dose [11] | increase in the hematocrit [12] [% per week]
1 | O=C1Nc2ccccc2C1=O [Isatin, Indole-2,3-dione] | ↑ | no noted inhibition | no noted inhibition | > 1 | 5 | induces phosphorylation of EPO-R | significantly enhance the phosphorylation of EPO-R | ↑ | no change in STAT5 activity | ↑ | no noted inhibition | ~10 | synergistic effect | ↓ | weaker than that of EPO | steadily enhanced when the concentration of Isatin was increased | ↓ |  | 
2 | Epoetin alfa: recombinant EPO protein developed by Amgen, approved by FDA for the treatment of anemia |  |  |  |  |  |  |  |  |  |  |  |  |  |  |  |  |  | about 20 days | 2
